From ChEMBL document CHEMBL3286379, “Design and synthesis of pyrimidine molecules endowed with thiazolidin-4-one as new anticancer agents” (Eur J Med Chem, 2014)

Columns and labels:
Format in all cases: functional
HL-60(TB) = assay: Growth inhibition of human HL-60(TB) cells after 48 hrs by sulforhodamine B assay; conditions: HL-60, 48 h
K562 = assay: Growth inhibition of human K562 cells after 48 hrs by sulforhodamine B assay; conditions: K562, 48 h
HOP-62 = assay: Growth inhibition of human HOP62 cells after 48 hrs by sulforhodamine B assay; conditions: HOP-62, 48 h
NCI-H322M = assay: Growth inhibition of human NCI-H322M cells after 48 hrs by sulforhodamine B assay
NCI-H522 = assay: Growth inhibition of human NCI-H522 cells after 48 hrs by sulforhodamine B assay; conditions: NCI-H522, 48 h
COLO 205 = assay: Growth inhibition of human COLO205 cells after 48 hrs by sulforhodamine B assay; conditions: COLO 205, 48 h
[1] = Growth inhibition of human HCT15 cells after 48 hrs by sulforhodamine B assay; conditions: HCT-15, 48 h
KM12 = assay: Growth inhibition of human KM12 cells after 48 hrs by sulforhodamine B assay; conditions: KM12, 48 h
[2] = Growth inhibition of human SF539 cells after 48 hrs by sulforhodamine B assay; conditions: SF-539, 48 h
SNB-19 = assay: Growth inhibition of human SNB19 cells after 48 hrs by sulforhodamine B assay; conditions: SNB-19, 48 h
U-251 = assay: Growth inhibition of human U251 cells after 48 hrs by sulforhodamine B assay; conditions: U-251, 48 h
SK-MEL-28 = assay: Growth inhibition of human SK-MEL-28 cells after 48 hrs by sulforhodamine B assay; conditions: SK-MEL-28, 48 h
[3] = Growth inhibition of human UACC62 cells after 48 hrs by sulforhodamine B assay; conditions: UACC-62, 48 h
[4] = Growth inhibition of human OVCAR4 cells after 48 hrs by sulforhodamine B assay; conditions: OVCAR-4, 48 h
[5] = Growth inhibition of human OVCAR5 cells after 48 hrs by sulforhodamine B assay; conditions: OVCAR-5, 48 h
A498 = assay: Growth inhibition of human A498 cells after 48 hrs by sulforhodamine B assay; conditions: A498, 48 h
TK-10 = assay: Growth inhibition of human TK10 cells after 48 hrs by sulforhodamine B assay; conditions: TK-10, 48 h
MCF7 = assay: Growth inhibition of human MCF7 cells after 48 hrs by sulforhodamine B assay; conditions: MCF7, 48 h
[6] = Growth inhibition of human Hs 578T cells after 48 hrs by sulforhodamine B assay
MDA-MB-468 = assay: Growth inhibition of human MDA-MB-468 cells after 48 hrs by sulforhodamine B assay; conditions: MDA-MB-468, 48 h
[7] = read-out: LC50 (the source's name)
[8] = read-out: pLC50 (the source's name) (converted)

Nc1nc(-c2ccccc2Cl)cc(-c2ccc(Cl)cc2Cl)n1
GI50 (HL-60(TB); read-out: GI50): 3.14 µM | CC50 (HL-60(TB); [7]): > 100 µM | TGI (HL-60(TB); read-out: TGI): 17.3 µM | GI50 (HL-60(TB); read-out: pGI50 (converted)): 3.16 µM | CC50 (HL-60(TB); [8]): > 100 µM | TGI (HL-60(TB); read-out: pTGI (converted)): 17.4 µM | GI50 (K562; read-out: GI50): 3.97 µM | CC50 (K562; [7]): > 100 µM | TGI (K562; read-out: TGI): > 100 µM | GI50 (K562; read-out: pGI50 (converted)): 3.98 µM | CC50 (K562; [8]): > 100 µM | TGI (K562; read-out: pTGI): > 100 µM | GI50 (HOP-62; read-out: GI50): 8.21 µM | CC50 (HOP-62; [7]): > 100 µM | TGI (HOP-62; read-out: TGI): > 100 µM | GI50 (HOP-62; read-out: pGI50 (converted)): 8.13 µM | CC50 (HOP-62; [8]): > 100 µM | TGI (HOP-62; read-out: pTGI): > 100 µM | GI50 (NCI-H322M; read-out: GI50): 31.2 µM | CC50 (NCI-H322M; [7]): > 100 µM | TGI (NCI-H322M; read-out: TGI): > 100 µM | GI50 (NCI-H322M; read-out: pGI50 (converted)): 30.9 µM | CC50 (NCI-H322M; [8]): > 100 µM | TGI (NCI-H322M; read-out: pTGI): > 100 µM | GI50 (NCI-H522; read-out: GI50): 3.27 µM | CC50 (NCI-H522; [7]): > 100 µM | TGI (NCI-H522; read-out: TGI): 23.3 µM | GI50 (NCI-H522; read-out: pGI50 (converted)): 3.31 µM | CC50 (NCI-H522; [8]): > 100 µM | TGI (NCI-H522; read-out: pTGI (converted)): 23.4 µM | GI50 (COLO 205; read-out: GI50): 3.52 µM | CC50 (COLO 205; [7]): 53 µM | TGI (COLO 205; read-out: TGI): 15.5 µM | GI50 (COLO 205; read-out: pGI50 (converted)): 3.55 µM | CC50 (COLO 205; [8]): 52.5 µM | TGI (COLO 205; read-out: pTGI (converted)): 15.5 µM | GI50 ([1]; read-out: GI50): 5.09 µM | CC50 [1, 7]: > 100 µM | TGI ([1]; read-out: TGI): > 100 µM | GI50 ([1]; read-out: pGI50 (converted)): 5.13 µM | CC50 [1, 8]: > 100 µM | TGI ([1]; read-out: pTGI): > 100 µM | GI50 (KM12; read-out: GI50): 4.1 µM | CC50 (KM12; [7]): > 100 µM | TGI (KM12; read-out: TGI): 31.3 µM | GI50 (KM12; read-out: pGI50 (converted)): 4.07 µM | CC50 (KM12; [8]): > 100 µM | TGI (KM12; read-out: pTGI (converted)): 30.9 µM | GI50 ([2]; read-out: GI50): 7.39 µM | CC50 [2, 7]: > 100 µM | TGI ([2]; read-out: TGI): 67 µM | GI50 ([2]; read-out: pGI50 (converted)): 7.41 µM | CC50 [2, 8]: > 100 µM | TGI ([2]; read-out: pTGI (converted)): 67.6 µM | GI50 (SNB-19; read-out: GI50): 16.1 µM | CC50 (SNB-19; [7]): > 100 µM | TGI (SNB-19; read-out: TGI): > 100 µM | GI50 (SNB-19; read-out: pGI50 (converted)): 16.2 µM | CC50 (SNB-19; [8]): > 100 µM | TGI (SNB-19; read-out: pTGI): > 100 µM | GI50 (U-251; read-out: GI50): 11.1 µM | CC50 (U-251; [7]): > 100 µM | TGI (U-251; read-out: TGI): > 100 µM | GI50 (U-251; read-out: pGI50 (converted)): 11.2 µM | CC50 (U-251; [8]): > 100 µM | TGI (U-251; read-out: pTGI): > 100 µM | GI50 (SK-MEL-28; read-out: GI50): 20.9 µM | CC50 (SK-MEL-28; [7]): > 100 µM | TGI (SK-MEL-28; read-out: TGI): > 100 µM | GI50 (SK-MEL-28; read-out: pGI50 (converted)): 20.9 µM | CC50 (SK-MEL-28; [8]): > 100 µM | TGI (SK-MEL-28; read-out: pTGI): > 100 µM | GI50 ([3]; read-out: GI50): 5.93 µM | CC50 [3, 7]: > 100 µM | TGI ([3]; read-out: TGI): 44.2 µM | GI50 ([3]; read-out: pGI50 (converted)): 5.89 µM | CC50 [3, 8]: > 100 µM | TGI ([3]; read-out: pTGI (converted)): 44.7 µM | GI50 [4]: 12 µM | CC50 [4, 7]: > 100 µM | CC50 [4, 8]: > 100 µM | TGI ([4]; read-out: pTGI (converted)): 89.1 µM | GI50 ([5]; read-out: GI50): 8.09 µM | CC50 [5, 7]: > 100 µM | TGI ([5]; read-out: TGI): > 100 µM | GI50 ([5]; read-out: pGI50 (converted)): 8.13 µM | CC50 [5, 8]: > 100 µM | TGI ([5]; read-out: pTGI): > 100 µM | GI50 (A498; read-out: GI50): 3.34 µM | CC50 (A498; [7]): > 100 µM | TGI (A498; read-out: TGI): 22.8 µM | GI50 (A498; read-out: pGI50 (converted)): 3.31 µM | CC50 (A498; [8]): > 100 µM | TGI (A498; read-out: pTGI (converted)): 22.9 µM | GI50 (TK-10; read-out: GI50): 9.46 µM | CC50 (TK-10; [7]): > 100 µM | TGI (TK-10; read-out: TGI): 51 µM | GI50 (TK-10; read-out: pGI50 (converted)): 9.55 µM | CC50 (TK-10; [8]): > 100 µM | TGI (TK-10; read-out: pTGI (converted)): 51.3 µM | GI50 (MCF7; read-out: GI50): 3.45 µM | CC50 (MCF7; [7]): > 100 µM | TGI (MCF7; read-out: TGI): > 100 µM | GI50 (MCF7; read-out: pGI50 (converted)): 3.47 µM | CC50 (MCF7; [8]): > 100 µM | TGI (MCF7; read-out: pTGI): > 100 µM | GI50 ([6]; read-out: GI50): 6.04 µM | CC50 [6, 7]: > 100 µM | TGI ([6]; read-out: TGI): 60.7 µM | GI50 ([6]; read-out: pGI50 (converted)): 6.03 µM | CC50 [6, 8]: > 100 µM | TGI ([6]; read-out: pTGI (converted)): 60.3 µM | GI50 (MDA-MB-468; read-out: GI50): 2180 nM | CC50 (MDA-MB-468; [7]): > 100 µM | TGI (MDA-MB-468; read-out: TGI): 8.66 µM | GI50 (MDA-MB-468; read-out: pGI50 (converted)): 2190 nM | CC50 (MDA-MB-468; [8]): > 100 µM | TGI (MDA-MB-468; read-out: pTGI (converted)): 8.71 µM
